Test results: the OligoGym collection
Where “and” joins values, the source holds several entries; their conditions need not be identical. Equal entries are not always repeated. HELM strings list units from the 5' end as sugar, base in round brackets, then linkage (d deoxyribose, r ribose, m 2'-O-methyl, p phosphodiester). Strings are as the collection lists them, not checked against the first reports. ss, as = sense and antisense strand; [s4r] = 4'-thioribose; [fl2r] = 2'-fluoro

Details: siRNA
Further: test system not given here.

## RNA1{r(A)p.r(A)p.r(C)p.r(A)p.r(G)p.r(C)p.r(C)p.r(U)p.r(U)p.r(A)p.r(C)p.r(C)p.r(C)p.r(C)p.r(G)p.r(A)p.r(U)p.r(U)p.r(C)p.r(T)p.r(T)}|RNA2{r(G)p.r(A)p.r(A)p.r(U)p.r(C)p.r(G)p.r(G)p.r(G)p.r(G)p.m(U)p.r(A)p.r(A)p.r(G)p.r(G)p.r(C)p.r(U)p.r(G)p.r(U)p.r(U)p.r(T)p.r(T)}$$$RNA1{StrandType:ss}|RNA2{StrandType:as}$
  target mRNA knockdown: 69%

## RNA1{m(G)p.r(A)p.m(U)p.r(A)p.m(C)p.r(U)p.m(U)p.r(C)p.m(U)p.r(G)p.m(G)p.r(U)p.m(U)p.r(C)p.m(C)p.r(C)p.m(U)p.r(C)p.m(C)p.r(T)p.r(T)}|RNA2{r(G)p.r(G)p.r(A)p.r(G)p.r(G)p.r(G)p.r(A)p.r(A)p.r(C)p.r(C)p.r(A)p.r(G)p.r(A)p.r(A)p.r(G)p.r(U)p.r(A)p.r(U)p.r(C)p.r(T)p.r(T)}$$$RNA1{StrandType:ss}|RNA2{StrandType:as}$
  target mRNA knockdown: 45%

## RNA1{r(A)p.r(A)p.r(A)p.r(C)p.r(A)p.r(U)p.r(G)p.r(C)p.r(A)p.r(G)p.r(A)p.r(A)p.r(A)p.r(A)p.r(U)p.r(G)p.r(C)p.r(U)p.r(G)p.r(T)p.r(T)}|RNA2{r(C)p.r(A)p.r(G)p.r(C)p.r(A)p.r(U)p.r(U)p.r(U)p.r(U)p.r(C)p.r(U)p.r(G)p.r(C)p.r(A)p.r(U)p.[s4r](G)p.[s4r](U)p.[s4r](U)p.[s4r](U)p.r(T)p.r(T)}$$$RNA1{StrandType:ss}|RNA2{StrandType:as}$
  target mRNA knockdown: 52.7%

## RNA1{[s4r](A)p.[s4r](A)p.[s4r](A)p.[s4r](C)p.r(A)p.r(U)p.r(G)p.r(C)p.r(A)p.r(G)p.r(A)p.r(A)p.r(A)p.r(A)p.r(U)p.r(G)p.r(C)p.r(U)p.r(G)p.r(T)p.r(T)}|RNA2{r(C)p.r(A)p.r(G)p.r(C)p.r(A)p.r(U)p.r(U)p.r(U)p.r(U)p.r(C)p.r(U)p.r(G)p.r(C)p.r(A)p.r(U)p.r(G)p.r(U)p.[s4r](U)p.[s4r](U)p.r(T)p.r(T)}$$$RNA1{StrandType:ss}|RNA2{StrandType:as}$
  target mRNA knockdown: 76.5%

## RNA1{r(G)p.r(C)p.r(A)p.r(A)p.r(C)p.r(U)p.r(C)p.r(A)p.r(U)p.r(G)p.r(G)p.r(U)p.r(U)p.r(C)p.r(A)p.r(U)p.r(G)p.r(C)p.r(U)p.r(T)p.r(T)}|RNA2{r(A)p.r(G)p.r(C)p.r(A)p.r(U)p.r(G)p.r(A)p.r(A)p.r(C)p.r(C)p.r(A)p.r(U)p.r(G)p.r(A)p.r(G)p.r(U)p.r(U)p.r(G)p.r(C)p.d(T)p.d(T)}$$$RNA1{StrandType:ss}|RNA2{StrandType:as}$
  target mRNA knockdown: 40%

## RNA1{r(A)p.r(A)p.r(A)p.r(C)p.r(A)p.r(U)p.r(G)p.r(C)p.r(A)p.r(G)p.r(A)p.r(A)p.r(A)p.r(A)p.r(U)p.r(G)p.r(C)p.r(U)p.r(G)p.r(T)p.r(T)}|RNA2{[s4r](C)p.[s4r](A)p.r(G)p.r(C)p.r(A)p.r(U)p.r(U)p.r(U)p.r(U)p.r(C)p.r(U)p.r(G)p.r(C)p.r(A)p.r(U)p.r(G)p.r(U)p.[s4r](U)p.[s4r](U)p.r(T)p.r(T)}$$$RNA1{StrandType:ss}|RNA2{StrandType:as}$
  target mRNA knockdown: 42.5%

## RNA1{r(C)p.r(C)p.r(G)p.r(A)p.r(A)p.r(G)p.r(A)p.r(C)p.r(G)p.r(A)p.r(A)p.r(G)p.r(C)p.m(U)p.r(A)p.r(U)p.r(G)p.r(A)p.r(A)p.r(T)p.r(T)}|RNA2{r(U)p.r(U)p.m(C)p.r(A)p.r(U)p.r(A)p.r(G)p.r(C)p.r(U)p.r(U)p.r(C)p.r(G)p.r(U)p.r(C)p.r(U)p.r(U)p.r(C)p.r(G)p.r(G)p.r(T)p.r(T)}$$$RNA1{StrandType:ss}|RNA2{StrandType:as}$
  target mRNA knockdown: 71%

## RNA1{m(G)p.r(C)p.m(U)p.r(G)p.m(A)p.r(G)p.m(G)p.r(A)p.m(A)p.r(A)p.m(G)p.r(G)p.m(G)p.r(A)p.m(C)p.r(A)p.m(U)p.r(C)p.m(U)p.r(T)p.r(T)}|RNA2{r(A)p.r(G)p.r(A)p.r(U)p.r(G)p.r(U)p.r(C)p.r(C)p.r(C)p.r(U)p.r(U)p.r(U)p.r(C)p.r(C)p.r(U)p.r(C)p.r(A)p.r(G)p.r(C)p.r(T)p.r(T)}$$$RNA1{StrandType:ss}|RNA2{StrandType:as}$
  target mRNA knockdown: 61%

## RNA1{m(A)p.m(A)p.r(U)p.m(A)p.m(A)p.m(G)p.r(C)p.m(A)p.m(G)p.r(C)p.r(U)p.r(C)p.m(G)p.r(C)p.m(G)p.r(C)p.r(U)p.r(C)p.r(C)p.r(T)p.r(T)}|RNA2{r(G)p.r(G)p.r(A)p.r(G)p.r(C)p.r(G)p.r(C)p.r(G)p.r(A)p.r(G)p.r(C)p.r(U)p.r(G)p.r(C)p.r(U)p.r(U)p.r(A)p.r(U)p.r(U)p.r(T)p.r(T)}$$$RNA1{StrandType:ss}|RNA2{StrandType:as}$
  target mRNA knockdown: 64%

## RNA1{r(A)p.r(A)p.r(C)p.r(C)p.r(C)p.r(A)p.r(C)p.r(C)p.r(A)p.r(C)p.r(A)p.r(G)p.r(C)p.m(U)p.m(A)p.r(G)p.r(A)p.r(A)p.r(C)p.m(U)p.m(U)}|RNA2{r(A)p.r(A)p.r(G)p.m(U)p.m(U)p.r(C)p.m(U)p.m(A)p.r(G)p.r(C)p.m(U)p.r(G)p.m(U)p.r(G)p.r(G)p.m(U)p.r(G)p.r(G)p.r(G)p.m(U)p.m(U)}$$$RNA1{StrandType:ss}|RNA2{StrandType:as}$
  target mRNA knockdown: 24%

## RNA1{r(C)p.r(C)p.r(G)p.r(A)p.r(G)p.r(A)p.r(G)p.r(C)p.r(U)p.r(C)p.r(U)p.r(C)p.r(C)p.m(U)p.r(A)p.r(C)p.r(C)p.r(U)p.r(U)p.r(T)p.r(T)}|RNA2{r(A)p.r(A)p.r(G)p.r(G)p.m(U)p.r(A)p.r(G)p.r(G)p.r(A)p.r(G)p.r(A)p.r(G)p.r(C)p.r(U)p.r(C)p.r(U)p.r(C)p.r(G)p.r(G)p.r(T)p.r(T)}$$$RNA1{StrandType:ss}|RNA2{StrandType:as}$
  target mRNA knockdown: 75%

## RNA1{r(G)p.r(U)p.r(A)p.r(U)p.r(U)p.r(G)p.r(A)p.r(C)p.r(A)p.r(G)p.r(C)p.r(U)p.r(A)p.r(U)p.r(U)p.r(C)p.r(G)p.r(A)p.r(A)p.d(T)p.d(T)}|RNA2{r(U)p.r(U)p.r(C)p.r(G)p.r(A)p.r(A)p.r(U)p.r(A)p.r(G)p.r(C)p.r(U)p.r(G)p.r(U)p.r(C)p.r(A)p.r(A)p.r(U)p.r(A)p.r(C)p.d(T)p.d(T)}$$$RNA1{StrandType:ss}|RNA2{StrandType:as}$
  target mRNA knockdown: 73%

## RNA1{r(G)p.r(C)p.r(U)p.r(U)p.r(C)p.r(G)p.r(G)p.r(A)p.r(A)p.r(A)p.r(C)p.[fl2r](U)p.[fl2r](G)p.r(G)p.r(A)p.[fl2r](C)p.r(A)p.r(U)p.r(C)p.r(T)p.r(T)}|RNA2{r(G)p.r(A)p.[fl2r](U)p.r(G)p.r(U)p.r(C)p.[fl2r](C)p.[fl2r](A)p.r(G)p.r(U)p.r(U)p.r(U)p.r(C)p.r(C)p.r(G)p.r(A)p.r(A)p.r(G)p.r(C)p.r(T)p.r(T)}$$$RNA1{StrandType:ss}|RNA2{StrandType:as}$
  target mRNA knockdown: 87%

## RNA1{r(A)p.r(A)p.r(C)p.r(C)p.r(C)p.r(A)p.r(C)p.r(C)p.r(A)p.r(C)p.r(A)p.r(G)p.r(C)p.r(U)p.r(A)p.r(G)p.r(A)p.r(A)p.r(C)p.r(U)p.r(U)}|RNA2{r(A)p.r(A)p.r(G)p.[fl2r](U)p.[fl2r](U)p.r(C)p.[fl2r](U)p.r(A)p.r(G)p.r(C)p.r(U)p.r(G)p.[fl2r](U)p.r(G)p.r(G)p.[fl2r](U)p.r(G)p.r(G)p.r(G)p.[fl2r](U)p.[fl2r](U)}$$$RNA1{StrandType:ss}|RNA2{StrandType:as}$
  target mRNA knockdown: 14%

## RNA1{r(G)p.r(U)p.r(G)p.r(A)p.r(A)p.r(G)p.r(U)p.r(C)p.r(A)p.r(A)p.r(C)p.r(A)p.r(U)p.r(G)p.r(C)p.r(C)p.r(U)p.r(G)p.r(C)p.d(T)p.d(T)}|RNA2{r(G)p.r(C)p.r(A)p.r(G)p.r(G)p.r(C)p.r(A)p.r(U)p.r(G)p.r(U)p.r(U)p.r(G)p.r(A)p.r(C)p.r(U)p.r(U)p.r(C)p.r(A)p.r(C)p.d(T)p.d(T)}$$$RNA1{StrandType:ss}|RNA2{StrandType:as}$
  target mRNA knockdown: 50% and 70%

## RNA1{r(C)p.[fl2r](U)p.r(A)p.r(G)p.r(A)p.r(G)p.r(G)p.r(A)p.r(U)p.r(C)p.r(U)p.[fl2r](U)p.r(G)p.r(A)p.r(A)p.r(G)p.r(A)p.r(C)p.r(C)p.r(T)p.r(T)}|RNA2{r(G)p.r(G)p.r(U)p.r(C)p.r(U)p.r(U)p.[fl2r](C)p.r(A)p.r(A)p.r(G)p.r(A)p.r(U)p.r(C)p.r(C)p.r(U)p.r(C)p.[fl2r](U)p.r(A)p.r(G)p.r(T)p.r(T)}$$$RNA1{StrandType:ss}|RNA2{StrandType:as}$
  target mRNA knockdown: 67% and 91%

## RNA1{m(A)p.r(G)p.m(A)p.r(A)p.m(G)p.r(U)p.m(A)p.r(C)p.m(C)p.r(A)p.m(G)p.r(G)p.m(A)p.r(G)p.m(G)p.r(C)p.m(G)p.r(U)p.m(U)p.r(T)p.r(T)}|RNA2{r(A)p.r(A)p.r(C)p.r(G)p.r(C)p.r(C)p.r(U)p.r(C)p.r(C)p.r(U)p.r(G)p.r(G)p.r(U)p.r(A)p.r(C)p.r(U)p.r(U)p.r(C)p.r(U)p.r(T)p.r(T)}$$$RNA1{StrandType:ss}|RNA2{StrandType:as}$
  target mRNA knockdown: 24%

## RNA1{[s4r](C)p.[s4r](G)p.[s4r](U)p.[s4r](A)p.[s4r](C)p.[s4r](G)p.[s4r](C)p.[s4r](G)p.[s4r](G)p.[s4r](A)p.[s4r](A)p.[s4r](U)p.[s4r](A)p.[s4r](C)p.[s4r](U)p.[s4r](U)p.[s4r](C)p.[s4r](G)p.[s4r](A)p.r(T)p.r(T)}|RNA2{r(U)p.r(C)p.r(G)p.r(A)p.r(A)p.r(G)p.r(U)p.r(A)p.r(U)p.r(U)p.r(C)p.r(C)p.r(G)p.r(C)p.r(G)p.r(U)p.r(A)p.r(C)p.r(G)p.r(T)p.r(T)}$$$RNA1{StrandType:ss}|RNA2{StrandType:as}$
  target mRNA knockdown: 60.3%

## RNA1{m(A)p.m(A)p.m(G)p.r(G)p.r(A)p.r(G)p.r(A)p.r(U)p.r(C)p.r(A)p.r(A)p.r(C)p.r(A)p.r(U)p.r(U)p.r(U)p.m(U)p.m(C)p.m(A)p.r(T)p.r(T)}|RNA2{m(U)p.m(G)p.m(A)p.r(A)p.r(A)p.r(A)p.r(U)p.r(G)p.r(U)p.r(U)p.r(G)p.r(A)p.r(U)p.r(C)p.r(U)p.r(C)p.m(C)p.m(U)p.m(U)p.r(T)p.r(T)}$$$RNA1{StrandType:ss}|RNA2{StrandType:as}$
  target mRNA knockdown: 76%

## RNA1{m(A)p.r(G)p.m(A)p.r(A)p.m(A)p.r(A)p.m(G)p.r(C)p.m(A)p.r(G)p.m(C)p.r(G)p.m(A)p.r(U)p.m(A)p.r(C)p.m(G)p.r(C)p.m(U)p.r(T)p.r(T)}|RNA2{r(A)p.r(G)p.r(C)p.r(G)p.r(U)p.r(A)p.r(U)p.r(C)p.r(G)p.r(C)p.r(U)p.r(G)p.r(C)p.r(U)p.r(U)p.r(U)p.r(U)p.r(C)p.r(U)p.r(T)p.r(T)}$$$RNA1{StrandType:ss}|RNA2{StrandType:as}$
  target mRNA knockdown: 34%
